From ChEMBL document CHEMBL1629541, “Synthesis and structure-activity relationships of aza- and diazabiphenyl analogues of the antitubercular drug (6S)-2-nitro-6-{[4-(trifluoromethoxy)benzyl]oxy}-6,7-dihydro-5H-imidazo[2,1-b][1,3]oxazine (PA-824)” (J Med Chem, 2010) come the findings set out here.

Values after ≈ are worked out from the molar mass of the structure shown.

The subject of series [1] is Mycobacterium tuberculosis. The series can be described thus: microbe, parasite or virus in culture. The conditions noted are these: H37Rv.
Series [2] relates to Mycobacterium tuberculosis. The series can be described thus: microbe, parasite or virus in culture. The conditions noted are these: H37Rv. The source holds these as a separate data set.
Description: Antitubercular activity against Mycobacterium tuberculosis H37Rv by LORA method
A short description of a further series: physchem. The conditions noted are these: water, pH 7.

Description for physchem: Solubility of the compound in water at pH 7.0 by HPLC

Regarding `O=[N+]([O-])c1cn2c(n1)OC[C@@H](OCc1cc(-c3ccc(OC(F)(F)F)cc3)ccn1)C2`, the MIC in series [1] amounted to 0.76 µM (≈ 0.332 µg/mL); in series [2], 18 µM (≈ 7.85 µg/mL).

`O=[N+]([O-])c1cn2c(n1)OC[C@@H](OCc1ccc(-c3ccc(F)cc3)cn1)C2`: the results for the MIC in series [1] and in series [2] were 0.13 µM (≈ 0.0481 µg/mL) and 3.2 µM (≈ 1.19 µg/mL), respectively.

Regarding `O=[N+]([O-])c1cn2c(n1)OC[C@@H](OCc1ccc(-c3ccc(OC(F)F)cc3)cn1)C2`, the MIC in series [1] is 0.02 µM (≈ 0.00837 µg/mL); in series [2], 4 µM (≈ 1.67 µg/mL).

For the compound `O=[N+]([O-])c1cn2c(n1)OC[C@@H](OCc1ccc(-c3ccc(OC(F)(F)F)cc3Cl)cn1)C2`, the MIC in series [1] came out at 0.14 µM (≈ 0.0659 µg/mL); in series [2], 2.6 µM (≈ 1.22 µg/mL).

As to `O=[N+]([O-])c1cn2c(n1)OC[C@@H](OCc1ccc(-c3ccc(OC(F)(F)F)cc3F)cn1)C2`, the figures for the MIC in series [1] and in series [2] were 0.06 µM (≈ 0.0273 µg/mL) and 1.7 µM (≈ 0.772 µg/mL), respectively.

Turning to `O=[N+]([O-])c1cn2c(n1)OC[C@@H](OCc1ccc(-c3ccc(OC(F)(F)F)cc3Cl)nc1)C2`, the figures for the MIC in series [1] and in series [2] were 0.03 µM (≈ 0.0141 µg/mL) and 1.6 µM (≈ 0.753 µg/mL), respectively.

In the case of `O=[N+]([O-])c1cn2c(n1)OC[C@@H](OCc1cnc(-c3ccc(C(F)(F)F)cc3)nc1)C2`, the MIC in series [1] turned out to be 0.025 µM (≈ 0.0105 µg/mL); in series [2] it was 9.4 µM (≈ 3.96 µg/mL).

For the compound `O=[N+]([O-])c1cn2c(n1)OC[C@@H](OCc1cnc(-c3ccc(F)cc3)nc1)C2`, the values for the MIC in series [1] and in series [2] were 0.11 µM (≈ 0.0408 µg/mL) and 5.4 µM (≈ 2.01 µg/mL), respectively.

Regarding `O=[N+]([O-])c1cn2c(n1)OC[C@@H](OCc1cnc(-c3ccc(C(F)(F)F)nc3)nc1)C2`, the values for the MIC in series [1] and in series [2] were 0.16 µM (≈ 0.0676 µg/mL) and 12 µM (≈ 5.07 µg/mL), respectively.

Turning to `O=[N+]([O-])c1cn2c(n1)OC[C@@H](OCc1ccccc1-c1cccnc1)C2`, the figures for the MIC in series [1] and in series [2] were greater than 8 µM and greater than 32 µM, respectively. Moreover, the solubility in “physchem” turned out to be 116 µg/mL (≈ 329 µM).

`O=[N+]([O-])c1cn2c(n1)OC[C@@H](OCc1ccccc1-c1ccc(F)nc1)C2`: the MIC in series [1] was greater than 8 µM; in series [2] it was 16 µM (≈ 5.93 µg/mL). The compound further gave a solubility in “physchem” of 35 µg/mL (≈ 94.5 µM).

Take `COc1ccc(-c2ccccc2CO[C@@H]2COc3nc([N+](=O)[O-])cn3C2)cn1`: the MIC in series [1] amounted to 5.2 µM (≈ 1.99 µg/mL); in series [2], 8.3 µM (≈ 3.17 µg/mL). Further, in “physchem”, the solubility was determined as 48 µg/mL (≈ 126 µM).

Regarding `O=[N+]([O-])c1cn2c(n1)OC[C@@H](OCc1ccccc1-c1ccc(OCc3ccccc3)nc1)C2`, the MIC in series [1] came out at 2.7 µM (≈ 1.24 µg/mL); in series [2] it was 10 µM (≈ 4.58 µg/mL). Further, the concentration in solution in the series “physchem” (solubility) came to 1.2 µg/mL (≈ 2.62 µM).

As to `O=[N+]([O-])c1cn2c(n1)OC[C@@H](OCc1ccccc1-c1ccncc1)C2`, the MIC in series [1] was greater than 8 µM; in series [2] it was greater than 32 µM.

On to `O=[N+]([O-])c1cn2c(n1)OC[C@@H](OCc1cccc(-c3ccccn3)c1)C2`, for which the MIC in series [1] came to 1.4 µM (≈ 0.493 µg/mL); in series [2], 11 µM (≈ 3.88 µg/mL).

For `O=[N+]([O-])c1cn2c(n1)OC[C@@H](OCc1cccc(-c3ccc(C(F)(F)F)cn3)c1)C2`, the MIC in series [1] was 0.32 µM (≈ 0.135 µg/mL); in series [2] it was 4.3 µM (≈ 1.81 µg/mL). Besides, in the series “physchem”, the solubility came out at 4 µg/mL (≈ 9.52 µM).

Turning to `O=[N+]([O-])c1cn2c(n1)OC[C@@H](OCc1cccc(-c3ccc(OC(F)F)cn3)c1)C2`, the MIC turned out to be 0.21 µM (≈ 0.0879 µg/mL) in series [1] and 6.4 µM (≈ 2.68 µg/mL) in series [2]. This compound returned a solubility in “physchem” of 6.7 µg/mL (≈ 16 µM).

As to `O=[N+]([O-])c1cn2c(n1)OC[C@@H](OCc1cccc(-c3cccnc3)c1)C2`, the MIC in series [1] turned out to be 1.4 µM (≈ 0.493 µg/mL); in series [2] it was 9.7 µM (≈ 3.42 µg/mL). Besides, in “physchem”, the solubility stood at 110 µg/mL (≈ 312 µM).

For the compound `O=[N+]([O-])c1cn2c(n1)OC[C@@H](OCc1cccc(-c3ccncc3)c1)C2`, the figures for the MIC in series [1] and in series [2] were 1.4 µM (≈ 0.493 µg/mL) and greater than 32 µM, respectively.

As for `O=[N+]([O-])c1cn2c(n1)OC[C@@H](OCc1cccc(-c3ccc(F)cc3)n1)C2`, the MIC stood at 0.3 µM (≈ 0.111 µg/mL) in series [1] and 2.7 µM (≈ 1 µg/mL) in series [2].

For the compound `O=[N+]([O-])c1cn2c(n1)OC[C@@H](OCc1cccc(-c3ccc(OC(F)(F)F)cc3)n1)C2`, the MIC stood at 0.16 µM (≈ 0.0698 µg/mL) in series [1] and 1.4 µM (≈ 0.611 µg/mL) in series [2].

Regarding `O=[N+]([O-])c1cn2c(n1)OC[C@@H](OCc1ccc(-c3ccc(C(F)(F)F)cc3)cc1)C2`, in “physchem”, the solubility was determined as 0.43 µg/mL (≈ 1.03 µM).
